From ChEMBL document CHEMBL1221353, “Synthesis and evaluation of amides surrogates of dopamine D3 receptor ligands” (Bioorg Med Chem Lett, 2010) come the findings set out here.

What is called Ki is the dissociation constant of the complex between target and ligand, obtained from inhibition or displacement.

One data set addresses D(2) dopamine receptor (Homo sapiens, UniProt P14416). Kind of data set: Displacement of [3H]spiperone from human dopamine D2S receptor expressed in HEK293 cells. In kind it is cell-based. (In general: Displacement assays read how much labelled ligand stays bound in the presence of the test substance.)
Data set [1] addresses T1, Alpha-1A adrenergic receptor (Homo sapiens, UniProt P35348).
T1 sequence (P35348 whole entry): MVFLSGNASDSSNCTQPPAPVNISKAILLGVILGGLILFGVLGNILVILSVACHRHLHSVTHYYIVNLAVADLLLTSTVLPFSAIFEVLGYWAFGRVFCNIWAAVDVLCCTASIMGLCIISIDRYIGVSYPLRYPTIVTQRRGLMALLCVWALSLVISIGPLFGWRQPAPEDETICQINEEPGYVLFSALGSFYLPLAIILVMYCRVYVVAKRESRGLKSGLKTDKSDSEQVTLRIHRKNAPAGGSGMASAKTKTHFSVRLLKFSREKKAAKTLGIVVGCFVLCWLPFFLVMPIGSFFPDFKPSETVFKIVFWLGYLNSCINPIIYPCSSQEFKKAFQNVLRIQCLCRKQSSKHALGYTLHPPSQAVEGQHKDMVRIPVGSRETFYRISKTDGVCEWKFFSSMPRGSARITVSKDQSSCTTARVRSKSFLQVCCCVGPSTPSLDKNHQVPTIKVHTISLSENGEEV
Briefly: Displacement of [3H]prazosin from human adrenergic alpha1A receptor.

The species entered for data set [2] is Homo sapiens. Kind of data set: Selectivity ratio of Ki for human dopamine D2S receptor to Ki for human dopamine D3 receptor.
The species entered for data set [3] is Homo sapiens. Kind of data set: Selectivity ratio of Ki for human adrenergic alpha1A receptor to Ki for human dopamine D3 receptor.
The next data set has as its target D(3) dopamine receptor (Homo sapiens, UniProt P35462). Briefly: biochemical.
Another data set has as its system Rattus norvegicus. Kind of data set: Absolute bioavailability in rat plasma at 10 mg/kg, po and 3 mg/kg, iv. In kind it is ADME, organism-based. To be noted: in vivo.
For another data set, the system named is Mus musculus. Kind of data set: Absolute bioavailability in mouse plasma at 10 mg/kg dose po and iv. The class given is ADME, organism-based. To be noted: in vivo.

D(2) dopamine receptor, sequence (P14416 whole entry): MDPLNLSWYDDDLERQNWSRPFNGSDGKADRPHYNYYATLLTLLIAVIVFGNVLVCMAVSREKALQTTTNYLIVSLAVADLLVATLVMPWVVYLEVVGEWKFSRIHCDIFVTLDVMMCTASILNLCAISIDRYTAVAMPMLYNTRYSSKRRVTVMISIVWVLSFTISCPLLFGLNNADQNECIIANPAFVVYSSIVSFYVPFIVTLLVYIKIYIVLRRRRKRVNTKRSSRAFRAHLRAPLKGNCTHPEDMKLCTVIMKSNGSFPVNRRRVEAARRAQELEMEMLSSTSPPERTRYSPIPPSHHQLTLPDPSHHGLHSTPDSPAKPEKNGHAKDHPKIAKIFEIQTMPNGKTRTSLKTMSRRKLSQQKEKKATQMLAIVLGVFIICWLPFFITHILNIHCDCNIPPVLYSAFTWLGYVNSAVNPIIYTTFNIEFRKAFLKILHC
D(3) dopamine receptor, sequence (P35462 whole entry): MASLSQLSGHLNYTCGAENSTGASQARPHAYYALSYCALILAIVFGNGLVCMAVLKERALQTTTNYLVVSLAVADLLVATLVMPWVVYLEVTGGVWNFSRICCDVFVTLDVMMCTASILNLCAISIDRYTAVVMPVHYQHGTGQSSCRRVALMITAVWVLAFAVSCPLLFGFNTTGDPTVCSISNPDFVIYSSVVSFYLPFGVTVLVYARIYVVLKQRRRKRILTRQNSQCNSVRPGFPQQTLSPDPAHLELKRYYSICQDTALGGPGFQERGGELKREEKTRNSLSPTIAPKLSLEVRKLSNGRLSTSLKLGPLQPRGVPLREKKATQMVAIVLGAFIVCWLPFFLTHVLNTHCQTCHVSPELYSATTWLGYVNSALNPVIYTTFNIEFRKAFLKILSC
Description for D(3) dopamine receptor: Displacement of [3H]spiperone from human dopamine D3 receptor expressed in CHO cells

With `Clc1cccc(N2CCN(CCCCNc3ccc(-c4ccccc4)cn3)CC2)c1Cl`, the Ki at D(2) dopamine receptor was 0.041 µM; in data set [1] it was 0.021 µM; at D(3) dopamine receptor, 0.00059 µM. In addition, the Ratio Ki was found to be 69 in the data set listed under Homo sapiens [2] and 35 in the data set filed under Homo sapiens [3].

For the molecule `FC(F)(F)c1cccc(N2CCN(CCCCNc3nccc4ccccc34)CC2)c1`, the Ki at D(2) dopamine receptor is 0.058 µM; in data set [1], 0.068 µM; at D(3) dopamine receptor, 0.001 µM. Also, the Ratio Ki in the data set listed under Homo sapiens [2] was 58; in the data set filed under Homo sapiens [3], 68.

As for `COc1ccccc1N1CCN(CCCCNc2ccccn2)CC1`, the inhibition constant (Ki) on D(2) dopamine receptor was 0.198 µM; in data set [1], 0.023 µM; at D(3) dopamine receptor it was 0.0008 µM. The results for the Ratio Ki in the data set filed under Homo sapiens [2] and in the data set listed under Homo sapiens [3] were 247 and 29, respectively.

With `FC(F)(F)c1cccc(N2CCN(CCCCNc3ccc4ccccc4n3)CC2)c1`, the Ki at D(2) dopamine receptor was 0.053 µM; in data set [1] it was 0.012 µM; at D(3) dopamine receptor it was 0.0016 µM. Further, the Ratio Ki stood at 33 in the data set listed under Homo sapiens [2] and 7.5 in the data set listed under Homo sapiens [3].

For the molecule `Cc1ccccc1N1CCN(CCCCNc2ccccn2)CC1`, the Ki on D(2) dopamine receptor is 0.383 µM; in data set [1], 0.014 µM; on D(3) dopamine receptor, 0.032 µM. Moreover, the Ratio Ki was 12 in the data set listed under Homo sapiens [2] and 0.4 in the data set listed under Homo sapiens [3].

`FC(F)(F)c1cccc(N2CCN(CCCCNc3ccc(-c4ccccc4)cn3)CC2)c1`: the Ki at D(2) dopamine receptor was 0.143 µM; in data set [1] it was 0.227 µM; on D(3) dopamine receptor, 0.0011 µM. Further, the Ratio Ki in the data set listed under Homo sapiens [2] was 130; in the data set listed under Homo sapiens [3] it was 207.

Consider `FC(F)(F)c1cccc(N2CCN(CCCCNc3ccccn3)CC2)c1`, for which the Ki is 0.198 µM at D(2) dopamine receptor, 0.593 µM in data set [1] and 0.017 µM at D(3) dopamine receptor. The Ratio Ki was found to be 12 in the data set filed under Homo sapiens [2] and 35 in the data set filed under Homo sapiens [3].

As to `Clc1cccc(N2CCN(CCCCNc3ccccn3)CC2)c1Cl`, in data set [1], the Ki came out at 0.033 µM.

For the molecule `Fc1ccccc1N1CCN(CCCCNc2ccccn2)CC1`, the Ki was 0.133 µM on D(2) dopamine receptor, 0.017 µM in data set [1] and 0.011 µM at D(3) dopamine receptor. Further, the Ratio Ki in the data set listed under Homo sapiens [2] is 12; in the data set filed under Homo sapiens [3], 1.5.

As for `Cc1cccc(N2CCN(CCCCNc3ccccn3)CC2)c1C`, the Ki on D(2) dopamine receptor was 0.207 µM; in data set [1], 0.04 µM; on D(3) dopamine receptor, 0.012 µM. For the same molecule, the figures for the Ratio Ki in the data set filed under Homo sapiens [2] and in the data set filed under Homo sapiens [3] were 17 and 3, respectively.

Turning to `Fc1ccccc1N1CCN(CCCCNc2cc(-c3ccccc3)ccn2)CC1`, the inhibitory constant (Ki) on D(2) dopamine receptor was 0.309 µM; in data set [1] it was 0.009 µM; on D(3) dopamine receptor it was 0.0015 µM. For the same molecule, the Ratio Ki in the data set listed under Homo sapiens [2] was 206; in the data set listed under Homo sapiens [3], 6.

In the case of `FC(F)(F)c1cccc(N2CCN(CCCCNc3cc(-c4ccccc4)ccn3)CC2)c1`, the inhibition constant Ki is 0.194 µM at D(2) dopamine receptor and 0.119 µM in data set [1]. The Ratio Ki in the data set filed under Homo sapiens [2] was 256; in the data set filed under Homo sapiens [3], 157. The bioavailability with Rattus norvegicus worked out at 0.65; in the data set with Mus musculus, 0.4.

In the case of `FC(F)(F)c1cccc(N2CCN(CCCCNc3nc(-c4ccccc4)cs3)CC2)c1`, the inhibition constant (Ki) on D(2) dopamine receptor is 2.43 µM; in data set [1], 0.072 µM; at D(3) dopamine receptor it was 0.013 µM. For the same molecule, the Ratio Ki in the data set listed under Homo sapiens [2] was found to be 183; in the data set filed under Homo sapiens [3] it was 5.4.

`COc1ccccc1N1CCN(CCCCNc2ccc3ccccc3n2)CC1` displayed a Ki in data set [1] of 0.006 µM.

For the molecule `Clc1cccc(N2CCN(CCCCNc3cc(-c4ccccc4)ccn3)CC2)c1Cl`, the Ki was 0.184 µM on D(2) dopamine receptor and 0.058 µM in data set [1]. For the same molecule, the Ratio Ki is 334 in the data set filed under Homo sapiens [2] and 106 in the data set listed under Homo sapiens [3].

In the case of `Clc1cccc(N2CCN(CCCCNc3nccc4ccccc34)CC2)c1Cl`, the inhibition constant Ki in data set [1] is 0.06 µM.

For `Clc1cccc(N2CCN(CCCCNc3ccc4ccccc4n3)CC2)c1Cl`, the inhibition constant (Ki) on D(2) dopamine receptor was 0.023 µM; in data set [1], 0.046 µM; at D(3) dopamine receptor, 0.0006 µM. Moreover, the values for the Ratio Ki in the data set filed under Homo sapiens [2] and in the data set filed under Homo sapiens [3] were 39 and 77, respectively.

On to `COc1ccccc1N1CCN(CCCCNc2nccc3ccccc23)CC1`, for which the values for the inhibitory constant (Ki) (at D(2) dopamine receptor; in data set [1]; on D(3) dopamine receptor) were 0.07 µM, 0.006 µM and 0.001 µM, respectively. Further, the Ratio Ki came out at 70 in the data set filed under Homo sapiens [2] and 6.3 in the data set filed under Homo sapiens [3].

In the case of `FC(F)(F)c1cccc(N2CCN(CCCCNc3ncc(-c4ccccc4)o3)CC2)c1`, the figures for the Ki (at D(2) dopamine receptor; in data set [1]; on D(3) dopamine receptor) were 2.32 µM, 0.272 µM and 0.0096 µM, respectively. The Ratio Ki was 242 in the data set listed under Homo sapiens [2] and 28 in the data set listed under Homo sapiens [3].

Consider `Fc1ccccc1N1CCN(CCCCNc2ccc(-c3ccccc3)cn2)CC1`, for which the inhibition constant (Ki) is 0.122 µM on D(2) dopamine receptor, 0.01 µM in data set [1] and 0.0025 µM on D(3) dopamine receptor. In addition, the results for the Ratio Ki in the data set filed under Homo sapiens [2] and in the data set filed under Homo sapiens [3] were 49 and 4, respectively.
